Read-outs that look alike come from different tables or passages of the source.
Legend:
SKBR-3 = assay: Cell viability assay (CCK-8), SKBR-3; assay type: cell-based, human
Method: (§1) Cells were seeded in a 96‐well plate at 1000–4000 cells per well for different cell lines. After overnight incubation, serially diluted samples (100 µL) were added to each well, and the plate was incubated at 37°C for 72 h (payloads) or 108 h (ADCs). After the old medium was replaced with 100 µL fresh medium, 10 µL of the Cell Counting Kit‐8 (CCK‐8) was added to each well, and the plate was incubated at 37°C for 2 h. After gently agitating the plate, the absorbance at 450 nm was recorded using a BioTek Synergy microplate reader. EC50 values were calculated using GraphPad Prism 9.3 software. All assays were performed in triplicate.

MDA-MB-231 = assay: Cell viability assay (CCK-8), MDA-MB-231; assay type: cell-based, human; settings: read-out: IC50 MDA-MB-231
Method: as §1

Topo I = biological target: T1, Topo I (Homo sapiens, UniProt P11387); assay: Topo I-mediated DNA cleavage assay; assay type: biochemical; settings: 10 µM
T1 sequence (P11387 1-765): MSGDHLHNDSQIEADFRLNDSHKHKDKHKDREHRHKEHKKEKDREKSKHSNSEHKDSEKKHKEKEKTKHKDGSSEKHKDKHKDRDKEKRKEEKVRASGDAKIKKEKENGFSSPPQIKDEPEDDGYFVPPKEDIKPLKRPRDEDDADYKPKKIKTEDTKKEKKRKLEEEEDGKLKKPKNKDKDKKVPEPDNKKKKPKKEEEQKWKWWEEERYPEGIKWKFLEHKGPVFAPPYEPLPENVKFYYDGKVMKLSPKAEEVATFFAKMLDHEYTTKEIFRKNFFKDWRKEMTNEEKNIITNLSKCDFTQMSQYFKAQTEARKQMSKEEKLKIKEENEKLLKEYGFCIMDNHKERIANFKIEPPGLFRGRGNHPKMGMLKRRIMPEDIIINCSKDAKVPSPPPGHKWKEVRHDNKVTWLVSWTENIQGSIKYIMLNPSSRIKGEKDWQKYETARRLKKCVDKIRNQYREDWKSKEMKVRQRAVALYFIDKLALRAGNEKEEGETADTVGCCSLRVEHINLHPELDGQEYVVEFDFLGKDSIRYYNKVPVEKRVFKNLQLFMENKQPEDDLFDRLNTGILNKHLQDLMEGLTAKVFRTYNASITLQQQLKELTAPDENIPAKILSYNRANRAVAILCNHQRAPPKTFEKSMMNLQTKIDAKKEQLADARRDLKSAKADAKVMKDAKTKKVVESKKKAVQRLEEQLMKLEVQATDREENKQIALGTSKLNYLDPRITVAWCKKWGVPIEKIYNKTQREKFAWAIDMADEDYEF
Method: DNA cleavage assay was performed by Huawei Pharmaceutical Co., Ltd. (Jinan, China) with reference to previous literature about camptothecin derivatives.^[ [63] ^]

[1] = test system: NCI-N87 and MDA-MB-231/GFP co-culture system; assay: In vitro co-culture model for bystander-killing evaluation; assay type: cell-based, human; settings: GFP fluorescence intensity and fluorescence microscopy
Method: After overnight incubation, a single concentration or a serially diluted solution of each ADC was added. Cell viability was evaluated after 120 h using the cell counting kit‐8 assay. The mixed cell viability was determined by CCK‐8 assay. […] In the supernatant proliferation inhibition experiment, gradient concentrations of ADC were incubated with NCI‐N87 (4000 cells per well) for 48 h.

[2] = test system: NCI-N87 cells and MDA-MB-231/teLuc cells (2: 5 ratio) xenograft; assay: Xenograft mouse model of HER2-heterogeneous cancer (co-inoculation) with teLuc imaging; assay type: in vivo, BALB/c nude mice; settings: single intravenous dose of 2 or 5 mg kg^-1
Method: On day 7, the tumors reached an average volume of ≈180 mm^3, mice were randomized to each group, and each ADC was given to the mice at a single dose of 5 or 2 mg kg^−1 through injection via the tail vein, with a volume of 10 mL kg^−1. The size of the tumor and body weight were monitored three times a week. The tumor volume was estimated on the mathematical formula, which is 1/2 × length × width^2.
Teal luciferase activity of each mouse in the HER2‐heterogeneous xenograft model was determined by an in vivo Imaging System (IVIS) Spectrum CT (PerkinElmer, USA) once a week (Day 7, 14, 21, 35) 10 min after intraperitoneal injection of pre‐dissolved DTZ (MeisenCTCC). The amount of luminescence was analyzed using analysis software (Living Image Software version 4.3.1; PerkinElmer) as average radiance (p per s per cm^2 per sr).

[3] = test system: breast tumors with low HER2 expression; design: method as in ref 25, 26 = [25]; 25 S. Modi , W. Jacot , T. Yamashita , J. Sohn , M. Vidal , E. Tokunaga , J. Tsurutani , N. T. Ueno , A. Prat , Y. S. Chae , K. S. Lee , N. Niikura , Y. H. Park , B. Xu , X. Wang , M. Gil‐Gil , W. Li || [26]; 26 Cancer Discov. 2022 , 12 , 1828 .; settings: breast tumors with low HER2 expression ref 25, 26; cited from earlier work
[4] = Parallel artificial membrane permeability assay (PAMPA); assay type: in vitro ADME; settings: for Papp at 4 h, 10 µM: PAMPA
Method: PAMPA was performed by WuXi AppTec Co., Ltd. (Wuxi, China). In brief, 150 µL of 10.0 µM donor solutions (5% DMSO) were added to each well of the donor plate, whose PVDF membrane was precoated with 5 µL of 1% lecithin/dodecane mixture. Then, 300 µL of PBS was added to each well of the PTFE acceptor plate. After incubation for 4 h at room temperature with shaking at 300 rpm, the plate was removed from the incubator, and the solution was transferred from each acceptor and donor well and mixed with acetonitrile (containing internal standard) as samples. Acceptor samples and donor samples were all analyzed by LC‐MS/MS to determine permeability rates (Pe). All assays were performed in duplicates.

NCI-N87 = assay: Cell viability assay (CCK-8), NCI-N87; assay type: cell-based; settings: Homo sapiens, NCI-N87, 72 h, read-out: IC50 NCI-N87
Method: as §1, with “After overnight incubation, serially diluted samples (100 µL) were added to each well, and the plate was incubated at 37°C for 72 h (payloads) or 108 h (ADCs).” left out

MDA-MB-453 = assay: Cell viability assay (CCK-8), MDA-MB-453; assay type: cell-based; settings: Homo sapiens, MDA-MB-453, 72 h, read-out: IC50 MDA-MB-453
Method: as §1, with “After overnight incubation, serially diluted samples (100 µL) were added to each well, and the plate was incubated at 37°C for 72 h (payloads) or 108 h (ADCs).” left out

MDA-MB-361 = assay: Cell viability assay (CCK-8), MDA-MB-361; assay type: cell-based; settings: Homo sapiens, MDA-MB-361, 72 h, read-out: IC50 MDA-MB-361
Method: as §1

JIMT-1 = assay: Cell viability assay (CCK-8), JIMT-1; assay type: cell-based; settings: Homo sapiens, JIMT-1, 72 h, read-out: IC50 JIMT-1
Method: as §1

[5] = test system: HER2-low-expressing urothelial carcinoma; design: method as in ref 29 = [29]; 29 H. Xu , X. Sheng , L. Zhou , X. Yan , S. Li , Z. Chi , C. Cui , L. Si , B. Tang , L. Mao , B. Lian , X. Wang , X. Bai , J. Li , J. Guo , JCO 2022 , 40 , 4519 .; settings: patients with HER2(IHC 1+), 5/13, phase II ref 29; cited from earlier work
[6] = Homo sapiens, SK-BR-3, 72 h, read-out: IC50 SKBR-3
[7] = Homo sapiens, SK-BR-3, read-out: pIC50 (converted)
[8] = Homo sapiens, SK-BR-3, Normalized from IC50 (μM) against SKBR-3, read-out: pIC50 (converted)
[9] = Homo sapiens, SK-BR-3, payloads, 3 days (72 h), HER2++, read-out: IC50 SKBR-3
[10] = Homo sapiens, MDA-MB-231, payloads, 3 days (72 h), HER2-
[11] = payloads, 3 days (72 h), HER2++, read-out: IC50 SKBR-3
[12] = 10.0 µM donor solution, 4 h, room temperature
[13] = 10.0 µM donor solution, 4 h, room temperature, read-out: Peff (PAMPA permeability)

Molecule: CC[C@@]1(O)C(=O)OCc2c1cc1n(c2=O)Cc2c-1nc1cc(F)c(C)c3c1c2[C@@H](NC(=O)C1(O)CCCC1)CC3 [Ed10]
- IC50 (SKBR-3; [6]): 0.0178 ± 0.00369 µM
- IC50 (SKBR-3; [7]): 0.0178 µM
- IC50 (MDA-MB-231; Homo sapiens, MDA-MB-231, 72 h): 5.17 nM
- Topo I inhibitory activity (Topo I): lose their inhibitory activity

Molecule: T-DM1
- killing of both NCI-N87 and MDA-MB-231/GFP cells in co-culture [1]: did not
- tumor volume change [2]: less effective
- effect [3]: limited effect

Molecule: CC[C@@]1(O)C(=O)OCc2c1cc1n(c2=O)Cc2c-1nc1cc(F)c(C)c3c1c2[C@@H](NC(=O)C(C)(C)O)CC3 [Ed8]
- Papp at 4 h, 10 µM [4]: 5.74 ×10⁻⁶ cm/s
- IC50 (SKBR-3; [8]): 0.0144 µM
- IC50 (SKBR-3; [9]): 0.0144 ± 0.00379 µM
- IC50 (MDA-MB-231; [10]): 4.21 nM

Molecule: CC[C@@]1(O)C(=O)OCc2c1cc1n(c2=O)Cc2c-1nc1cc(F)c(C)c3c1c2[C@@H](NC(=O)C[C@@H](O)c1ccccc1)CC3 [Ed5]
- IC50 (SKBR-3; [11]): 0.177 ± 0.0158 µM

Molecule: CC[C@@]1(O)C(=O)OCc2c1cc1n(c2=O)Cc2c-1nc1cc(F)c(C)c3c1c2[C@@H](NC(=O)[C@H](O)C(F)(F)F)CC3 [Ed6]
- IC50 (SKBR-3; [8]): 0.0604 µM
- IC50 (SKBR-3; [9]): 0.0604 µM
- IC50 (MDA-MB-231; [10]): 9.46 nM

Molecule: CC[C@@]1(O)C(=O)OCc2c1cc1n(c2=O)Cc2c-1nc1cc(F)c(C)c3c1c2[C@@H](NC(=O)C1(O)CCCCC1)CC3 [Ed11]
- Peff (PAMPA permeability) [4, 12]: 6.12 10^-6 cm/s
- IC50 (SKBR-3; [11]): 0.0177 ± 0.00534 µM
- IC50 (MDA-MB-231; payloads, 3 days (72 h), HER2-): 5.43 nM

Molecule: CC[C@@]1(O)C(=O)OCc2c1cc1n(c2=O)Cc2c-1nc1cc(F)c(C)c3c1c2[C@@H](NC(=O)[C@@H](O)C(C)C)CC3 [Ed1]
- IC50 (SKBR-3; [6]): 0.129 µM
- IC50 (SKBR-3; [7]): 0.129 µM

Molecule: CC[C@@]1(O)C(=O)OCc2c1cc1n(c2=O)Cc2c-1nc1cc(F)c(C)c3c1c2[C@@H](NC(=O)C1(O)CCC1)CC3 [Ed9]
- Papp at 4 h, 10 µM [4]: 5.66 ×10⁻⁶ cm/s
- IC50 (SKBR-3; [8]): 0.0132 µM
- IC50 (SKBR-3; [9]): 0.0131 ± 0.00424 µM
- IC50 (MDA-MB-231; [10]): 2.69 nM
- IC50 (NCI-N87; payloads, 3 days, HER2++): 1.17 nM
- IC50 (MDA-MB-453; payloads, 3 days, HER2+): 120 nM
- IC50 (MDA-MB-361; payloads, 3 days, HER2+): 1.69 nM
- IC50 (JIMT-1; payloads, 3 days, HER2+): 193 nM
- Topo I inhibitory activity (Topo I): significantly lower than that of DXd

Molecule: CC[C@@]1(O)C(=O)OCc2c1cc1n(c2=O)Cc2c-1nc1cc(F)c(C)c3c1c2[C@@H](NC(=O)C(O)c1ccccc1)CC3 (single isomer, unassigned) [Ed3]
- IC50 (SKBR-3; [11]): 0.109 ± 0.0122 µM

Molecule: CCC1(O)C(=O)OCc2c1cc1n(c2=O)Cc2c-1nc1cc(F)c(C)c3c1c2C(NC(=O)CO)CC3 (stereo not shown) [DXd, reference compound]
- Papp at 4 h, 10 µM [4, 13]: 3.12 ×10⁻⁶ cm/s
- IC50 (SKBR-3; [6]): 0.0739 ± 0.0171 µM
- IC50 (SKBR-3; [7]): 0.074 µM
- IC50 (MDA-MB-231; Homo sapiens, MDA-MB-231, 72 h): 25.8 nM
- IC50 (NCI-N87): 9.03 nM
- IC50 (MDA-MB-453): 262 nM
- IC50 (MDA-MB-361): 16.4 nM
- IC50 (JIMT-1): 577 nM

Molecule: CC[C@@]1(O)C(=O)OCc2c1cc1n(c2=O)Cc2c-1nc1cc(F)c(C)c3c1c2[C@@H](NC(=O)C(O)C(F)(F)F)CC3 (stereo partly shown) [Ed7]
- Peff (PAMPA permeability) [4, 12]: 4.96 10^-6 cm/s
- IC50 (SKBR-3; [11]): 0.0415 µM
- IC50 (MDA-MB-231; payloads, 3 days (72 h), HER2-): 6.11 nM

Molecule: CC[C@@]1(O)C(=O)OCc2c1cc1n(c2=O)Cc2c-1nc1cc(F)c(C)c3c1c2[C@@H](NC(=O)[C@H](O)C(C)C)CC3 [Ed2]
- Peff (PAMPA permeability) [4, 12]: 2.67 10^-6 cm/s
- IC50 (SKBR-3; [11]): 0.0421 µM
- IC50 (MDA-MB-231; payloads, 3 days (72 h), HER2-): 8.32 nM

Molecule: NC(=O)N1c2ccccc2C=Cc2ccccc21 [Carbamazepine, reference compound]
- Papp at 4 h, 10 µM [4, 13]: > 10 ×10⁻⁶ cm/s

Molecule: CC[C@@]1(O)C(=O)OCc2c1cc1n(c2=O)Cc2c-1nc1cc(F)c(C)c3c1c2[C@@H](NC(=O)C(O)c1ccccc1)CC3 (single isomer, unassigned) [Ed4]
- Peff (PAMPA permeability) [4, 12]: 3.43 10^-6 cm/s
- IC50 (SKBR-3; [11]): 0.0495 ± 0.00832 µM
- IC50 (MDA-MB-231; payloads, 3 days (72 h), HER2-): 4.41 nM

B1: Disitamab Vedotin (conjugate, chains of the INN, looked up)
VH: EVQLVQSGAEVKKPGATVKISCKVSGYTFTDYYIHWVQQAPGKGLEWMGRVNPDHGDSYYNQKFKDKATITADKSTDTAYMELSSLRSEDTAVYFCARNYLFDHWGQGTLVTVSS
VL: DIQMTQSPSSVSASVGDRVTITCKASQDVGTAVAWYQQKPGKAPKLLIYWASIRHTGVPSRFSGSGSGTDFTLTISSLQPEDFATYYCHQFATYTFGGGTKVEIK
modifications: vedotin (MMAE) payload
- ORR [5]: 38%

— publication PMC10987111, “Rational Identification of Novel Antibody‐Drug Conjugate with High Bystander Killing Effect against Heterogeneous Tumors” (Advanced Science, 2024)
